ChEMBL document CHEMBL1157996, “Guttiferone F, the first prenylated benzophenone from Allanblackia stuhlmannii” (J Nat Prod, 1999)
In brackets after ≈: the same amount, converted by molar mass.

Tested on: Human immunodeficiency virus 1
Assay: Antiviral activity against HIV1 assessed as protection against virus-induced cytopathogenicity
Format: functional, organism-based

- EC50: 23 µg/mL (≈ 38.2 µM)
Compound: C=C(C)[C@H](CC=C(C)C)C[C@@]12C[C@@H](CC=C(C)C)C(C)(C)[C@@](CC=C(C)C)(C(=O)C(C(=O)c3ccc(O)c(O)c3)=C1O)C2=O [GUTTIFERONE F]
